Measurements from patent publication US8119681B2, “2-[1-phenyl-5-hydroxy or methoxy-4alpha-methyl-hexahydrocyclopenta [ƒ]indazole-5-YL]ethyl phenyl derivatives as glucocorticoid receptor ligands” (Merck Sharp & Dohme Corp., priority 2006, dated 2012).
Read-outs that look alike come from different tables or passages of the source.

Biological target: T1, human GR (Homo sapiens, UniProt P04150)
T1 sequence (P04150 1-777): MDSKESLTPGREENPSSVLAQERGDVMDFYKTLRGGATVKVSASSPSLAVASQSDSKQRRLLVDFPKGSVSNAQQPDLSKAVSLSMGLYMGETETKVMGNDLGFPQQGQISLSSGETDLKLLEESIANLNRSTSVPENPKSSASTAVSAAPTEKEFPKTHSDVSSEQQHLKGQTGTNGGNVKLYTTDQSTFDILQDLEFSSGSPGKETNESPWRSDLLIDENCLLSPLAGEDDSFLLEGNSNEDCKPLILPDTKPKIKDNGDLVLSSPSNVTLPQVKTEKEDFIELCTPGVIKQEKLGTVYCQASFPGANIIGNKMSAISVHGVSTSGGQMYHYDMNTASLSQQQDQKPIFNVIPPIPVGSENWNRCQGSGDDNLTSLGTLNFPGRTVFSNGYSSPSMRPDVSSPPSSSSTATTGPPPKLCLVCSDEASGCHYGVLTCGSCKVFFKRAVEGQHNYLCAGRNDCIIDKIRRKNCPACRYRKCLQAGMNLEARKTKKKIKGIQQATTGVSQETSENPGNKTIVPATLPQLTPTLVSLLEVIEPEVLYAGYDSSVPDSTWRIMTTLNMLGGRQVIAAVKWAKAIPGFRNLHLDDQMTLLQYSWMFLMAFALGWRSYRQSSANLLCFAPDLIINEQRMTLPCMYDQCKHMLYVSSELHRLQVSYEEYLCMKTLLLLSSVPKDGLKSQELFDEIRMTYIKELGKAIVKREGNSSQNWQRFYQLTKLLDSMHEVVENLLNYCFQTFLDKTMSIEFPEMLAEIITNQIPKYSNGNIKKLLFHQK
Assay: Transrepression Assay (GITAR), TNFα-β-lactamase reporter gene in U937 cells
Assay type: cell-based
Parameters: U937 cells contain an endogenous glucocorticoid receptor (GR); endogenous in cells; host or cells: U937 cells stably transfected with the TNF-α promoter/β-lactamase reporter only
Details: for EC50: IP = inflection point; for GITAR > GRAMM % SEP: separation of GITAR Emax over GRAMMER Emax; for Emax: U-937
Summary of the method: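 Reporter readout used CCF2-AM loading for 70–90 min at room temperature after overnight (~18 h, 37 °C) PMA (5 ng/ml final) and LPS (100 ng/ml final) stimulation of compound-treated (30–45 min) TNFα-β-lactamase U937 cells expressing native GR. Activity was normalised to 100 nM dexamethasone repression.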

[1] = Table 1, U937 cells, read-out: Transrepression U937 Cells GITAR IP
[2] = 100 nM dexamethasone = 100% activity, read-out: maximal activity in the transrepression assay
[3] = Table 1, U937 cells, activity repressed by 100 nM dexamethasone = 100%, read-out: Transrepression U937 Cells GITAR Emax (%)
[4] = Table 2, U937 cells, read-out: Transactiviation U937 Cells GITAR IP
[5] = Table 2, U937 cells, activity repressed by 100 nM dexamethasone = 100%, read-out: Transactiviation U937 Cells GITAR Emax (%)

| EC50 [1] [nM] | GITAR > GRAMM % SEP (Table 1) [%] | Emax [2] [%] | Emax [3] [%] | EC50 [4] [nM] | GITAR > GRAMM % SEP (Table 2) [%] | Emax [5] [%] | SMILES |
| --- | --- | --- | --- | --- | --- | --- | --- |
| – | – | – | – | 175 | −62 | 83 | C[C@]12Cc3cnn(-c4ccc(F)cc4)c3C=C1CC[C@@]2(O)CCc1ccccc1F [Example 70 WO 2004/075840 A2, reference compound] |
| 96 | 37 | 5 to 100 | 60 | – | – | – | CCS(=O)(=O)NCc1c(F)cccc1CC[C@]1(O)CCC2=Cc3c(cnn3-c3ccc(F)cc3)C[C@@]21C [Example 84, N-(2-fluoro-6-{2-[(4αS,5R)-1-(4-fluorophenyl)-5-hydroxy-4α-methyl-1,4,4α,5,6,7-hexahydrocyclopenta[f]indazol-5-yl]ethyl}benzyl)ethanesulfonamide] |
| 182 | 44 | 5 to 100 | 63 | – | – | – | C[C@]12Cc3cnn(-c4ccc(F)cc4)c3C=C1CC[C@@]2(O)CCc1cccc(F)c1CNS(=O)(=O)C(Cl)Cl [Example 85, 1,1-dichloro-N-(2-fluoro-6-{2-[(4αS,5R)-1-(4-fluorophenyl)-5-hydroxy-4α-methyl-1,4,4α,5,6,7-hexahydrocyclopenta[f]indazol-5-yl]ethyl}benzyl)methanesulfonamide] |
| 90 | 37 | 5 to 100 | 69 | – | – | – | C[C@]12Cc3cnn(-c4ccc(F)cc4)c3C=C1CC[C@@]2(O)CCc1cccc(F)c1CNS(=O)(=O)C1CC1 [Example 88, N-(2-fluoro-6-{2-[(4αS,5R)-1-(4-fluorophenyl)-5-hydroxy-4α-methyl-1,4,4α,5,6,7-hexahydrocyclopenta[f]indazol-5-yl]ethyl}benzyl)cyclopropanesulfonamide] |
| 217 | 29 | 5 to 100 | 66 | – | – | – | C[C@]12Cc3cnn(-c4ccc(F)cc4)c3C=C1CC[C@@]2(O)CCc1ccccc1CC(N)=O [Example 107, 2-(2-{2-[(4αS,5R)-1-(4-fluorophenyl)-5-hydroxy-4α-methyl-1,4,4α,5,6,7-hexahydrocyclopenta[f]indazol-5-yl]ethyl}phenyl)acetamide] |
| 207 | 39 | 5 to 100 | 71 | – | – | – | CN(C)S(=O)(=O)Nc1c(F)cccc1CC[C@]1(O)CCC2=Cc3c(cnn3-c3ccc(F)cc3)C[C@@]21C [Example 113, N′-(2-fluoro-6-{2-[(4αS,5R)-1-(4-fluorophenyl)-5-hydroxy-4α-methyl-1,4,4α,5,6,7-hexahydrocyclopenta[f]indazol-5-yl]ethyl}phenyl)-N,N-dimethylsulfamide] |

Further lines, the molecule ahead of its results:

| SMILES | EC50 [1] [nM] | GITAR > GRAMM % SEP (Table 1) [%] | Emax [2] [%] | Emax [3] [%] | EC50 [4] [nM] | GITAR > GRAMM % SEP (Table 2) [%] | Emax [5] [%] |
| --- | --- | --- | --- | --- | --- | --- | --- |
| CC(C)(C)CNC(=O)c1c(F)cccc1CC[C@]1(O)CCC2=Cc3c(cnn3-c3ccc(F)cc3)C[C@@]21C [Example 55, N-(2,2-dimethylpropyl)-2-fluoro-6-{2-[(4αS,5R)-1-(4-fluorophenyl)-5-hydroxy-4α-methyl-1,4,4α,5,6,7-hexahydrocyclopenta[f]indazol-5-yl]ethyl}benzamide] | 187 | 53 | 5 to 100 | 76 | – | – | – |
| C=CCNC(=O)c1c(F)cccc1CC[C@]1(O)CCC2=Cc3c(cnn3-c3ccc(F)cc3)C[C@@]21C [Example 57, N-allyl-2-fluoro-6-{2-[(4αS,5R)-1-(4-fluorophenyl)-5-hydroxy-4α-methyl-1,4,4α,5,6,7-hexahydrocyclopenta[f]indazol-5-yl]ethyl}benzamide] | 30 | 40 | 5 to 100 | 77 | – | – | – |
| COc1ccccc1CC[C@]1(O)CCC2=Cc3c(cnn3-c3ccc(F)cc3)C[C@@]21C [Example 58 WO 2004/075840 A2, reference compound] | – | – | – | – | 642 | 14 | 42 |
| CC(C)(C)NC(=O)c1c(F)cccc1CC[C@]1(O)CCC2=Cc3c(cnn3-c3ccc(F)cc3)C[C@@]21C [Example 59, N-(tert-butyl)-2-fluoro-6-{2-[(4αS,5R)-1-(4-fluorophenyl)-5-hydroxy-4α-methyl-1,4,4α,5,6,7-hexahydrocyclopenta[f]indazol-5-yl]ethyl}benzamide] | 95 | 37 | 5 to 100 | 77 | – | – | – |
| CC(C)CNC(=O)c1c(F)cccc1CC[C@]1(O)CCC2=Cc3c(cnn3-c3ccc(F)cc3)C[C@@]21C [Example 61, 2-fluoro-6-{2-[(4αS,5R)-1-(4-fluorophenyl)-5-hydroxy-4α-methyl-1,4,4α,5,6,7-hexahydrocyclopenta[f]indazol-5-yl]ethyl}-N-isobutylbenzamide] | 83 | 44 | 5 to 100 | 79 | – | – | – |
| CC(C)(C)NC(=O)c1ccccc1CC[C@]1(O)CCC2=Cc3c(cnn3-c3ccc(F)cc3)C[C@@]21C [Example 62, N-(tert-butyl)-2-{2-[(4αS,5R)-1-(4-fluorophenyl)-5-hydroxy-4α-methyl-1,4,4α,5,6,7-hexahydrocyclopenta[f]indazol-5-yl]ethyl}benzamide] | 246 | 56 | 5 to 100 | 79 | – | – | – |
| CC(C)S(=O)(=O)NCc1c(F)cccc1CC[C@]1(O)CCC2=Cc3c(cnn3-c3ccc(F)cc3)C[C@@]21C [Example 83, N-(2-fluoro-6-{2-[(4αS,5R)-1-(4-fluorophenyl)-5-hydroxy-4α-methyl-1,4,4α,5,6,7-hexahydrocyclopenta[f]indazol-5-yl]ethyl}benzyl)propane-2-sulfonamide] | 94 | 33 | 5 to 100 | 54 | – | – | – |
| C[C@]12Cc3cnn(-c4ccc(F)cc4)c3C=C1CC[C@@]2(O)CCc1cccc(F)c1CNS(=O)(=O)CC(F)(F)F [Example 86, 2,2,2-trifluoro-N-(2-fluoro-6-{2-[(4αS,5R)-1-(4-fluorophenyl)-5-hydroxy-4α-methyl-1,4,4α,5,6,7-hexahydrocyclopenta[f]indazol-5-yl]ethyl}benzyl)ethanesulfonamide] | 246 | 53 | 5 to 100 | 66 | – | – | – |
| CN(C)S(=O)(=O)NCc1c(F)cccc1CC[C@]1(O)CCC2=Cc3c(cnn3-c3ccc(F)cc3)C[C@@]21C [Example 89, N′-(2-fluoro-6-{2-[(4αS,5R)-1-(4-fluorophenyl)-5-hydroxy-4α-methyl-1,4,4α,5,6,7-hexahydrocyclopenta[f]indazol-5-yl]ethyl}benzyl)-N,N-dimethylsulfamide] | 64 | 50 | 5 to 100 | 70 | – | – | – |
| C[C@]12Cc3cnn(-c4ccc(F)cc4)c3C=C1CC[C@@]2(O)CCc1ccccc1C1(NS(=O)(=O)C2CC2)CC1 [Example 91, N-[1-(2-{2-[(4αS,5R)-1-(4-fluorophenyl)-5-hydroxy-4α-methyl-1,4,4α,5,6,7-hexahydrocyclopenta[f]indazol-5-yl]ethyl}phenyl)cyclopropyl]cyclopropanesulfonamide] | 231 | 26 | – | 72 | – | – | – |
| CCS(=O)(=O)Nc1ccccc1CC[C@]1(O)CCC2=Cc3c(cnn3-c3ccc(F)cc3)C[C@@]21C [Example 114, N-(2-{2-[(4αS,5R)-1-(4-fluorophenyl)-5-hydroxy-4α-methyl-1,4,4α,5,6,7-hexahydrocyclopenta[f]indazol-5-yl]ethyl}phenyl)ethanesulfonamide] | 199 | 34 | 5 to 100 | 78 | – | – | – |
